Results: PMC10290137, “Systems-level analyses of protein-protein interaction network dysfunctions via epichaperomics identify cancer-specific mechanisms of stress adaptation” (Nature Communications, 2023)
pIC50: −log10 of the molar value. Where two headings read alike, the source gives them in different places. Values belong to the molecule of their own block, whether it stands above or below them.

Experiments:
[1] = system: T1, HSC70; test: CETSA in MDA-MB-468 cells and homogenates; the value is the IC50 for epiHSP70s disruption in cancer cells; assay type: cell-based
T1 construct: gene HSPA8; endogenous epiHSP70 epichaperome assemblies in human cancer cells (probably MDA-MB-468); HSC70/HSP70 pool, no recombinant construct
Source text: CETSA in MDA-MB-468 cells and homogenates; the value is the IC50 for epiHSP70s disruption in cancer cells (b12) on HSC70 | three evaluated YKs—YK5, YK198 and LSI137—we observed in CETSA, performed both in cells and cell homogenates, a significant thermal stabilization

[2] = system: T1, HSC70; test: as above; assay type: cell-based; remark: listed apart in the source
[3] = target: T2, HSC70 (Homo sapiens, UniProt P11142); test: reconstituted purified HSC70: fluorescence anisotropy peptide release ([…] YK198) and stopped-flow MABA-ATP binding ([…]); also CETSA; assay type: biochemical
T2 construct: gene HSPA8
T2 sequence (P11142 2-646): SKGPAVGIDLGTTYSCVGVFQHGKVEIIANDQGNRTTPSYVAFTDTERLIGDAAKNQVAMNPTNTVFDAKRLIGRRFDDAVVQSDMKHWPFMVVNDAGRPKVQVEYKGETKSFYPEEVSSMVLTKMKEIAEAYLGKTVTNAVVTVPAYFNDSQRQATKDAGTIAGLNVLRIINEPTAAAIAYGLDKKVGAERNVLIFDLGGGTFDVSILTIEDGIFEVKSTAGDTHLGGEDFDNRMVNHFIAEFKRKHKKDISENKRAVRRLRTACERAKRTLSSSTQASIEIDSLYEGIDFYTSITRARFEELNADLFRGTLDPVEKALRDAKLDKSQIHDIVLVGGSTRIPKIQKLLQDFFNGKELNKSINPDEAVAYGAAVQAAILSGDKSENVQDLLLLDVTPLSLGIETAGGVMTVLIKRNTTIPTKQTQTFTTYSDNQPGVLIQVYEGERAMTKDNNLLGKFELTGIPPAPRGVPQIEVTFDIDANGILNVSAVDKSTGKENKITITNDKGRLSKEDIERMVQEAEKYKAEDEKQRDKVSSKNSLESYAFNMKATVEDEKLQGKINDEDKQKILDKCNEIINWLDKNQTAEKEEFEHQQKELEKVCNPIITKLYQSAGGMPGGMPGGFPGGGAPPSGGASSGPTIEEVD

pIC50 [1]: 5.30
Compound: C=CC(=O)Nc1cc(N)nc(Sc2c(OC)nc(N3CCN(C)CC3)nc2OC)n1 [YK5]

pIC50 [2]: 7.22
Compound: COc1cccc(COc2nc(N3CCC(N(C)C)C3)ncc2Sc2ccc(N)nc2)c1 (stereo not drawn) [LSI137]

Compound: CN1CCN(c2ncc(Sc3ccc(N)nc3)c(OCc3ccccc3)n2)CC1 [YK198]
reconstituted purified HSC70: fluorescence anisotropy peptide release (100 uM YK) [3]: biochemical effect of YKs on HSP70s manifests majorly at the allosteric release of the interactor protein, impairing its release
